Experimental data as given in patent US20120129843A1, “PYRIDYL-THIAZOLYL INHIBITORS OF PRO-MATRIX METALLOPROTEINASE ACTIVATION” (priority 2010, published 2012).

What was measured:
[1] = test system: rats with SCW-induced arthritis; test: Efficacy in rats with SCW-induced arthritis (ankle thickness, clinical score); format: in vivo, rat; details: for Clinical Scores (0-8), Day 18 (mean): Day 18, start of treatment; for Clinical Scores (0-8), Day 26 (mean): Day 18-26
Description: A polyarthritis can be induced in female Lewis rats following i.p. administration of streptococcal cell wall (SCW) proteoglycan-polysaccharides (PG-PS) (J Exp Med 1977; 146:1585-1602). The model has an acute phase (days 3-7) that is complement and neutrophil-dependent and that resolves. A chronic erosive phase begins at about day ten and is dependent on the development of specific T cell immunity to the PG-GS, which resists digestion and remains present in synovial macrophages for months. Like rheumatoid arthritis, SCW-induced arthritis is reduced by TNF inhibitors, and the dependence of SCW-induced arthritis on macrophages (Rheumatology; 2001; 40:978-987) and the strong association of rheumatoid arthritis severity with synovial-tissue macrophage counts (Ann Rheum Dis; 2005; 64:834-838) makes SCW-arthritis an attractive model for testing potential therapeutic agents. SCW PG-PS 10S (Beckton Dickinson Cat#210866) suspended in saline was vortexed for 30 seconds and sonicated for 3 min with a probe type sonicator prior to injection. Female Lewis (LEW/N) rats, 5-6 weeks of age (80-100 g) were injected (i.p.) with SCW PG-PS (15 μg of rhamnose/gram BW) in the lower left quadrant of the abdomen using a 1 mL syringe fitted with a 23-gauge needle. Control (disease-free) rats were treated in a similar manner with sterile saline. Control rats were sacrificed on day 5 and groups of SCW-injected rats were sacrificed on day 5 when acute inflammation was maximal or on day 18 when chronic inflammation was established.
To induce arthritis, Female Lewis (LEW/N) rats, 5-6 weeks of age (80-100 g) were injected (i.p.) with SCW PG-PS as described above. Eighteen days later, arthritis was well established. Calipers were used to measure the width (anterior to posterior surface) of the left and right hind ankles of each rat. Each ankle was measured 3 times and averaged, and treatment groups were randomized based on ankle thickness (Table 6). Commencing on day 18, randomized groups of arthritic rats (n=5 rats/group) received vehicle or 5, 20, or 50 mg/kg Compound-α BID by oral gavage. Vehicle consisted of an aqueous mixture containing 2% (v:v) N-methylpyrrolidone, 5% (v:v) glycerine, and 20% (w:v) captisol. Treatment continued daily through the morning of day 26.
By day 18 mean ankle thickness was increased an average of >4.4 mm compared to disease free rats. Rats treated with vehicle alone continued to gradually develop a more severe arthritis based on ankle thickness measurements over the eight-day treatment period (Table 6). […] By day 26, the disease associated increase in ankle thickness had been reduced 27, 37, and 46 percent by 5, 20, and 50 mg/kg Compound-α, respectively.
Hind paw inflammation clinical scores were assigned based on swelling and erythema.

[2] = molecular target: T1, MMP9 mediated gelatinase activity in the livers (Rattus norvegicus, UniProt P50282); test: In situ zymography of gelatinase activity in livers of SCW-induced rats dosed with compound; format: in vivo; details: for Intensity, Mean / Intensity, Rat 1 / Intensity, Rat 2 / Intensity, Rat 3: SCW, Day 25-28
T1 construct: from tissue; host or cells: frozen liver sections of female Lewis rats
T1 sequence (P50282 20-708): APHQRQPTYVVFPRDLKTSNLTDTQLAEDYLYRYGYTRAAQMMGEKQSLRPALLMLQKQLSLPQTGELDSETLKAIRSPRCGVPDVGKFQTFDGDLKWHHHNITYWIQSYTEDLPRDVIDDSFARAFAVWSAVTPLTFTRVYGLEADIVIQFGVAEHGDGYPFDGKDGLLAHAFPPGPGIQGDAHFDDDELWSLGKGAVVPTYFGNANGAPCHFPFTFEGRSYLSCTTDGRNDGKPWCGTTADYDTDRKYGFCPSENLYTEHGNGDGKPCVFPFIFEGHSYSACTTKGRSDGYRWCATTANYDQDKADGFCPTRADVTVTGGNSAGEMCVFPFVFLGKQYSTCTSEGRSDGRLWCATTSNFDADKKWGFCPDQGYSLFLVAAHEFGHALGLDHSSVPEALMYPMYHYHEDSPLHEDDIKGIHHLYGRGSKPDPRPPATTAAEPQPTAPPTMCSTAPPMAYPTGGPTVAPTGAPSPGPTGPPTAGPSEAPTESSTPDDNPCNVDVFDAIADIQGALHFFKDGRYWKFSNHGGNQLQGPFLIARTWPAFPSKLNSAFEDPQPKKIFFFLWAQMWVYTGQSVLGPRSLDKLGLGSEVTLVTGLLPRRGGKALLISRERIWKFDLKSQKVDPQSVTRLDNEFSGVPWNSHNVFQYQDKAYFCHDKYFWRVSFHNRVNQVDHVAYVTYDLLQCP
Description: Compound-α Reduced MMP9 Mediated Gelatinase Activity in the Livers of Rats with SCW Arthritis In situ zymography provides an alternative approach to assess active MMP9 in tissues (Frederiks). Tissue sections are overlain with fluorescene-conjugated gelatin wherein the conjugation is sufficiently dense to cause the fluorescene to be dye-quenched (DQ). Proteolytic degradation of the DQ-gelatin releases the fluorescene from the quenching effect giving rise to bright green fluorescence at the site of degradation. Because in situ zymography requires the use of frozen sections, calcified tissues are problematic. However, an additional feature of the SCW arthritis model is the development of hepatic granulomatous disease (J Immunol; 1986; 137:2199-2209), and MMP9 reportedly plays a role in macrophage recruitment in the granulomas response to mycobacteria (Infect Immun; 2006; 74:6135-6144). Consequently, granulomatous livers from SCW-treated rats were assessed for active MMP9 by in situ zymography.
As described above, Female Lewis (LEW/N) rats, 5-6 weeks of age (80-100 g) were injected (i.p.) with saline or SCW PG-PS. On day 28, when the granulomatous response was well established, animals were sacrificed and livers were frozen in OCT cryo-sectioning medium and 10 μm sections were cut on a Cryome HM 500 M cryotome and mounted on glass microscope slides. Sections were air dried briefly. MMP9 was confirmed as the source of the gelatinase activity in the liver by treating liver sections with monoclonal antibodies directed against the active site of the two major gelatinases MMP9 and MMP2. Liver sections overlain with 50 μL of 100 μg/mL neutralizing mouse monoclonal antibodies directed against MMP9 (Calbiochem, clone 6-6B), or MMP2 (Millipore, clone CA-4001), or with PBS for 1 hr at room temperature. Tissues were rinsed once with PBS, blotted, and briefly air dried and then overlain with DQ-gelatin (Invitrogen) dissolved to 1 mg/mL in deionized water and then diluted 1:10 in 1% wt/vol low gelling point agarose type VII (Sigma) in PBS. The sections were covered with coverslips, incubated in the dark at room temperature for 20 min, and imaged on an Olympus IX80 inverted microscope fitted with fluorescence optics, using SlideBook™ imaging software (Intelligent Imaging Innovations, Inc., Philadelphia, Pa.; version 5.0). Fluorescence intensity was determined (Table 8). When compared to a saline-treated rat, gelatinase activity was abundantly expressed in granulomatous liver sections obtained from a rat with SCW arthritis.
Next, liver in situ zymography was used to assess the relative presence of active MMP9 in rats dosed with vehicle vs. Compound-α. Female Lewis (LEW/N) rats, 5-6 weeks of age (80-100 g) were injected (i.p.) with saline or SCW PG-PS. Commencing on day 25, randomized groups of rats (n=3 rats/group) received vehicle or 20 or 50 mg/kg Compound-α BID by oral gavage. Vehicle consisted of an aqueous mixture containing 2% (v:v) N-methylpyrrolidone, 5% (v:v) glycerine, and 20% (w:v) captisol. Treatment continued daily through the morning of day 28. Four hrs after the AM dose on day 28, rats were sacrificed and livers assessed for active MMP9 by in situ zymography (Table 9). Gelatinase activity was increased markedly in SCW-induced rats, but activity was reduced by approximately 80% in animals treated with 50 mg/kg Compound-α.

reduction of liver gelatinase activity ([2]; 50 mg/kg, SCW-induced rats): approximately 80% | Intensity, Mean ([2]; 20 mg/kg BID oral): 55.2 RLU × 10^6 | Intensity, Rat 1 ([2]; 20 mg/kg BID oral): 43.0 RLU × 10^6 | Intensity, Rat 2 ([2]; 20 mg/kg BID oral): 69.0 RLU × 10^6 | Intensity, Rat 3 ([2]; 20 mg/kg BID oral): 53.7 RLU × 10^6 | Intensity, Mean ([2]; 50 mg/kg BID oral): 11.1 RLU × 10^6 | Intensity, Rat 1 ([2]; 50 mg/kg BID oral): 3.2 RLU × 10^6 | Intensity, Rat 2 ([2]; 50 mg/kg BID oral): 25.6 RLU × 10^6 | Intensity, Rat 3 ([2]; 50 mg/kg BID oral): 4.5 RLU × 10^6
SMILES: Cc1nc(C)c(-c2csc(Nc3cc(S(N)(=O)=O)ccc3OC(C)C)n2)s1 [Compound-α, 3-(2′,4′-Dimethyl-[4,5′]bithiazolyl-2-ylamino)-4-isopropoxy-benzenesulfonamide.HBr]
Clinical Scores (0-8), Day 18 (mean) ([1]; 5 mg/kg BID group): 8.00 | Clinical Scores (0-8), Day 26 (mean) ([1]; 5 mg/kg BID): 6.80 | Clinical Scores (0-8), Day 18 (mean) ([1]; 20 mg/kg BID group): 8.00 | Clinical Scores (0-8), Day 26 (mean) ([1]; 20 mg/kg BID): 5.20 | Clinical Scores (0-8), Day 18 (mean) ([1]; 50 mg/kg BID group): 7.80 | Clinical Scores (0-8), Day 26 (mean) ([1]; 50 mg/kg BID): 4.40
